Patent US8492420B2, “Use of purine derivatives for the production of medicaments for the treatment of mucoviscidosis and diseases related to protein addressing errors in cells” (Centre National de la Recherche Scientifique-CNRS, priority 2004, dated 2013)
“Also recorded” adds a separate entry of the source. Read-outs that look alike come from different tables or passages of the source.

Columns and labels:
delF508-CFTR [1] = target: T1, delF508-CFTR (Homo sapiens, UniProt P13569, DEL508-508); test: Immunolocalisation of delF508-CFTR in CF15 cells (confocal); type: cell-based; design: CF15 human lung epithelial cells homozygous for the delF508 deletion; endogenous in cells; host or cells: CF15 human epithelial cells, homozygous delF508; conditions: 2 hrs treatment, 100 μM
T1 sequence (P13569 with tags, fused parts or gaps DEL508-508): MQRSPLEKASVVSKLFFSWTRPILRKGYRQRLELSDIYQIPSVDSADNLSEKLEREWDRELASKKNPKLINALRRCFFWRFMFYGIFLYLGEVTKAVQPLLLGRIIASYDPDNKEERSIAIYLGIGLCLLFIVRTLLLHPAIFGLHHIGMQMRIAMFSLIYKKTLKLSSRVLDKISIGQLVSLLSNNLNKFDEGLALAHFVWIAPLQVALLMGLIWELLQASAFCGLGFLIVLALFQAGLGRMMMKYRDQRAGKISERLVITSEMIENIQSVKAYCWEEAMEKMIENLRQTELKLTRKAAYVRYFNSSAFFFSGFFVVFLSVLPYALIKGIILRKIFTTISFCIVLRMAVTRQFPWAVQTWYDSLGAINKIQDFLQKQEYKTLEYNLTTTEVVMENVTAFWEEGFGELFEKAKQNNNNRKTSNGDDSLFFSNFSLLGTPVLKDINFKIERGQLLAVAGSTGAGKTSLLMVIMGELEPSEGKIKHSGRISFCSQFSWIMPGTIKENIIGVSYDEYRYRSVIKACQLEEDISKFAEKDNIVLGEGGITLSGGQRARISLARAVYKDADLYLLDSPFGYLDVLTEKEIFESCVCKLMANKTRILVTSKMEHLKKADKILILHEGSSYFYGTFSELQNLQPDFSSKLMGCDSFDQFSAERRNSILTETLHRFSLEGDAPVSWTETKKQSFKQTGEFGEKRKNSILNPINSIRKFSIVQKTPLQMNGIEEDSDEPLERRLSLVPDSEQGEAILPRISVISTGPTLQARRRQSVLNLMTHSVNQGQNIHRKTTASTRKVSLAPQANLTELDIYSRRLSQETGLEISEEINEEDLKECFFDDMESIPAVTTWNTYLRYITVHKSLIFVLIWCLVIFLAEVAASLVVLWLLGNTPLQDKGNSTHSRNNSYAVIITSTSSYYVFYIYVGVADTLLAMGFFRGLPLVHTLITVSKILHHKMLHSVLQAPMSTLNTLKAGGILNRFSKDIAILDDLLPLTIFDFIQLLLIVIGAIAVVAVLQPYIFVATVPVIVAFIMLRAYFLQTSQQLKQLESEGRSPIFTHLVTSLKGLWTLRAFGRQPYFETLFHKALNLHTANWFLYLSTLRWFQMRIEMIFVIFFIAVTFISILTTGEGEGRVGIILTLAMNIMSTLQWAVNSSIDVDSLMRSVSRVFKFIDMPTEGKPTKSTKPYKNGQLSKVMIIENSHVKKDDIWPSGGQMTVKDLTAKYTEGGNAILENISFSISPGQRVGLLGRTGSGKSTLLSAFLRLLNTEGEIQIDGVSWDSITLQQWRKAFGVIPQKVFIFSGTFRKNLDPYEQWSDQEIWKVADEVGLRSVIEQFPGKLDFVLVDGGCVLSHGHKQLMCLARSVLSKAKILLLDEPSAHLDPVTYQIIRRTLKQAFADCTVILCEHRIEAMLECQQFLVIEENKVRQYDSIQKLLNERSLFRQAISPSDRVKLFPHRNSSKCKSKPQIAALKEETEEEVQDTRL
Experimental: Immunolabelling allows visualising the cellular localisation of the CFTR protein by means of an anti-CFTR primary antibody (Ab), and a secondary Cy3-labelled fluorescent antibody directed against the primary antibody. The cells are first seeded on cover slips in an appropriate culture medium. The cells are then washed 3 times with TBS (157 mM NaCl, […] Tris base, pH 7.4) for 5 min. each time and then fixed by adding 3% TBS-paraformaldehyde for 20 min. After 3 washes with TBS (5 min. each), the cells are incubated with 0.1% TBS-triton (10 min) to make holes in the cell membrane, and then washed 3 times with TBS before being exposed to 0.5% TBS-BSA-0.05% saponin for 1 hr. The cells are then incubated with the primary anti-CFTR C terminal antibody (2 μg/ml) for 1 hr. The cells are washed 3 times (5 min. each) with TBS-BSA-saponin before incubating with the GAM-cy3 secondary antibody (1/400) for 1 hr. After 2 TBS washes (5 min. each), the nuclei are labelled by incubating with Topro3 (1/1,000) for 5 min. Finally, the cover slips can be mounted on a glass slide after 3 final TBS washes (5 min. each). The slides are analysed with a confocal microscope (Bio-Rad) using laser excitation at appropriate wave-lengths. In order to differentiate Cy3 from Topro3 labelling, the colour of the Topor3 fluorescence has been changed to blue (colour of the nuclei). […]

delF508-CFTR [2] = target: T1, delF508-CFTR; test: Immunoprecipitation and Western-Blot of delF508-CFTR in CF15 cells; type: cell-based; design: CF15 human lung epithelial cells homozygous for the delF508 deletion; endogenous in cells; host or cells: CF15 human epithelial cells, homozygous delF508; conditions: 2 hrs, 100 μM
Experimental: The study of delF508-CFTR protein addressing is performed in the laboratory by using a combination of pharmacological, cellular imagery, biochemical and electrophysiological tests on CF15 human lung epithelial cells homozygous for the delF508 deletion. Results of immunoprecipitation and Western-Blot analyses of non mutated CFTR from wild-type CHO cells and delF508 cells treated for 2 hrs with 100 μM of the tested compound (FIG. 3C) or untreated cells (control). CF15 cells treated for 24 hrs at 27° C. (FIG. 3B) or for 2 hrs with 10 μM thapsigargin (TG) were used as a positive control.

delF508-CFTR [3] = target: T1, delF508-CFTR; test: Iodide efflux test of delF508 addressing in CF15 cells
Experimental: These cells will therefore overexpress the CFTR protein. • Culture medium: MEM alpha medium (GIBCO)+7% foetal calf serum+0.5% penicilline/streptomycin+100 μM methotrexate (amethopterine, Sigma). • CF15 cells: CF15 cells are human nasal epithelial cells expressing the ΔF508-CFTR gene. • Culture medium: DMEM+HAM F12 medium+10% FCS+0.6% penicilline/streptomycin+growth factors (5 μg/ml insulin, 5 μg/ml transferrin, 5.5 μM epinephrin, 0.18 mM adenine, 10 ng/ml EGF, 2 nM T3, 1.1 μM hydrocortisone). • Calu-3 cells: Calu-3 cells are human lung epithelial cells expressing the wild-type CFTR gene. • Culture medium: DMEM/F12 medium with glutamax+7% foetal calf serum+1% penicillin/streptomycin.
Measurements of chloride ion transport in the cells were performed using the radioactive iodide efflux technique (Becq and al., 1999; Dormer and al., 2001). The ^125I tracer is incorporated into the intracellular milieu. The quantity of radiotracer coming out of the cell is then measured after adding various pharmacological agents. Iodide is used as a tracer of chloride ion transport. ^125I has the advantage of being short-lived compared to other markers such as ^35CI (respective half-lives: 30 days and 300,000 years).
The cells are incubated in an appropriate medium in 24-well plates. The cells are rinsed twice with efflux medium (136.6 mM NaCl, 5.4 mM KCl, 0.3 mM KH2PO4, 0.3 mM NaH2PO4, 4.2 mM NaHCO3, 1.3 mM CaCl2, 0.5 mM MgCl2, 0.4 mM MgSO4, 10 mM HEPES, 5.6 mM D-glucose) in order to eliminate dead cells, which release radioactivity in an anarchic fashion. The cells are then incubated with a 500-μl load (1 μCi/ml ^125INa) for 30 min for CHO-WT or 1 hr for CF15 and Calu-3 cells. The iodide equilibrates on either side of the cell membrane. The following steps are performed using a MultiPROBE probe (Packard): the loading medium is rinsed with efflux medium in order to eliminate extracellular radioactivity. The supernatant is collected every minute into haemolysis tubes and the medium is replaced by an equivalent volume of medium (500 μl). No drug is added to the samples taken in the first three minutes in order to obtain a stable baseline characterising the passive exit of I ions. The 7 samples that follow are obtained in the presence of the molecule to be tested. At the end of the experiment, the cells are lysed by adding 500 μl of 0.1 N NaOH/0.1% SDS (30 min), which allows determining the level of radioactivity remaining inside the cell. The radioactivity present in the haemolysis tubes is measured as counts per minute (cpm) using a Cobra II gamma counter (Packard). The results (cpm) are expressed as velocity of radioactive iodide efflux (R) according to the formula: R (min^−1)=[In(^125I t1)−In(^125I t2)]/(t1−t2) where ^125I t1=at time t1 and ^125I t2=at time t2. This iodide flux is represented by a graph. In order to quantify the iodide efflux due to administration of the tested molecule, the relative flux is calculated as follows in order to ignore the basal flux: Relative velocity (min^−1)=Rpeak−Rbasal. […] The results are presented in the form of a mean +/−SEM. Student's statistical test is used to compare the effect of the various drugs with the controls (the corresponding P<0.01 values are considered to be statistically significant).
For each experiment, the addition of a cocktail (10 μM Forskoline+30 μM Genisteine) allows activation of the CFTR when the latter is localised in the membrane. This allows an iodide efflux to be observed if delF508 addressing has been restored.

wild-type CFTR [4] = target: T2, wild-type CFTR (Homo sapiens, UniProt P13569); test: Iodide efflux test of CFTR addressing in Calu-3 cells; type: cell-based; conditions: Calu-3 cells treated 2 hrs, 100 μM
T2 sequence (P13569 whole entry): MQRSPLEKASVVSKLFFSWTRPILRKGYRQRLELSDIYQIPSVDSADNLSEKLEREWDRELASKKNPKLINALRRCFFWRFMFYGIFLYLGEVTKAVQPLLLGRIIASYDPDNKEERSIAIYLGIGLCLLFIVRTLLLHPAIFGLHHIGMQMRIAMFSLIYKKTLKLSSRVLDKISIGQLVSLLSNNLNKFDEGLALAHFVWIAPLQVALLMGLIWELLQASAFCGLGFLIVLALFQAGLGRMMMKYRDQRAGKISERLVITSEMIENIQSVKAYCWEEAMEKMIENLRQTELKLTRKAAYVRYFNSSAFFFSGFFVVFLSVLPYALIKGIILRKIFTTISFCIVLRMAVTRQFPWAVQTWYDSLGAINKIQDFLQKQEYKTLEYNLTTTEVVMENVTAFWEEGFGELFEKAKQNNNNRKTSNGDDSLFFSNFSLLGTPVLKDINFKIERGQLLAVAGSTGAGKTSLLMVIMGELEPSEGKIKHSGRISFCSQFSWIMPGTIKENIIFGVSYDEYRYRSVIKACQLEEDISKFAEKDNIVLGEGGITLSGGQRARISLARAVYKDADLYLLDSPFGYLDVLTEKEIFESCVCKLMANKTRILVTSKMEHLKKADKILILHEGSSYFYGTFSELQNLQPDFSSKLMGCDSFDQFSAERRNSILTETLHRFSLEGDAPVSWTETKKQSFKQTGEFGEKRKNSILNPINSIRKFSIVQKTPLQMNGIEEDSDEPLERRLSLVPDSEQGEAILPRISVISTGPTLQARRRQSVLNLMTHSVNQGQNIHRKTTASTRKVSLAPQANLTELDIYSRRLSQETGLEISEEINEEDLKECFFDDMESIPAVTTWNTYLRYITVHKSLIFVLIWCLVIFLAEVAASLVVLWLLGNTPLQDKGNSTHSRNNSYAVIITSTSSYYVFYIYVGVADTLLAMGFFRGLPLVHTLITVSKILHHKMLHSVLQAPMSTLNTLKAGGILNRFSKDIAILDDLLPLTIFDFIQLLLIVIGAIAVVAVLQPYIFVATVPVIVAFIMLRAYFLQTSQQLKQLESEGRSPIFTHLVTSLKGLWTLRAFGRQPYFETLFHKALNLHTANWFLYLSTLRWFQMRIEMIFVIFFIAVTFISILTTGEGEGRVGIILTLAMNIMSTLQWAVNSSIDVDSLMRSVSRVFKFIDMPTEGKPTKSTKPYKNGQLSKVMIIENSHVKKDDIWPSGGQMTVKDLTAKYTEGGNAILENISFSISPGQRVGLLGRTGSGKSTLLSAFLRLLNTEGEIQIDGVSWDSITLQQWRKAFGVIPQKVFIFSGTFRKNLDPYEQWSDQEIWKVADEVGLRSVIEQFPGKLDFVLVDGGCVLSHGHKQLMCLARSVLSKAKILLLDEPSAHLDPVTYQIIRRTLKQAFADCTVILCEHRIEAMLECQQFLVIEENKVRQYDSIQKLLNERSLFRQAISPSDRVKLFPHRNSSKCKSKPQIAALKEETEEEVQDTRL

delF508-CFTR [5] = target: T1, delF508-CFTR; test: Competition between roscovitine and ER chaperone machinery (iodide efflux); type: cell-based; design: CF15 human lung epithelial cells homozygous for the delF508 deletion; endogenous in cells; host or cells: CF15 human epithelial cells, homozygous delF508
Text: The competition between CFTR-T1 and the ER chaperone machinery is illustrated by FIGS. 6A and 6B.
The table below summarises the roscovitine and ER chaperone machinery competition experiments performed by the iodide efflux technique. • inhibition, ** P<0.01, * P<0.1, ns P>0.1 (Student's t-test)

CHO-WT cells = test: MTT cytotoxicity test; type: cell-based, Chinese Hamster; conditions: 2 hrs incubation, different concentrations
Experimental: The MTT cytotoxicity test is a […] test based on the capacity of mitochondrial dehydrogenases to metabolise MTT (a yellow tetrazolium salt) into formazan (purple). The absorbance is proportional to the concentration of converted dye and can then be measured by spectrophotometry. The cells are incubated in 96-well microplates in the presence of the agent to be tested for 2 hours. Three controls are performed: 100% live cells (cells without any agent); 0% live cells (cells left under normal atmosphere); blank (medium without cells). The cells are rinsed with RPMI medium without phenol red in order for the colour of the medium not to interfere with absorbance measurements. The cells are then incubated for 4 hours with 100 μl RPMI solution supplemented with MTT (0.5 mg/ml). The medium is eliminated and 100 μl DMSO is added to dissolve the converted dye (formazan). The absorbance is measured by spectrophotometry at 570 nm (purple); 630 nm (background noise). In order to ignore the background noise, the following calculation is performed: DOreelle=DO570nm−DO630nm.
In order to test the cytotoxicity of roscovitine, CHO-WT cells were incubated for 2 hrs with different concentrations of inhibitors before being tested for viability with MTT.

wild-type CFTR [6] = target: T2, wild-type CFTR; test: Iodide efflux test of CFTR activation in Calu-3 cells; type: cell-based; conditions: n=8, controls forskoline 5 μM and MPB-91 250 μM
Experimental: The controls used were forskoline (5 μM, n=8) and MPB-91 (250 μM, n=8).

[7] = read-out: Ec50 (concentration giving 50% of maximal efficiency) for delF508 addressing, CF15 cells, 2 hrs at 37° C., stimulation with 10 μM Forskoline+30 μM Genisteine, n=4

| SMILES | Localisation of delF508-CFTR protein (delF508-CFTR [1]) | Maturation of delF508-CFTR (band C in Western-Blot) (delF508-CFTR [2]) | Maturation of delF508-CFTR (band C in Western-Blot) (delF508-CFTR [2]; listed as CFTR-T1) | EC50 (delF508-CFTR [3]) | Function of readdressed delF508-CFTR (iodide efflux and patch-clamp on whole cells) (delF508-CFTR [3]) | Treatment time for maximal correction of delF508-CFTR chloride ion channel function (delF508-CFTR [3]; CF15 cells, 100 μM) | Restoration of delF508 addressing and ion transport function (delF508-CFTR [3]; CF15 cells, 2 hrs at 37° C., two forms (R and S)) | CFTR activity after treatment (wild-type CFTR addressing) (wild-type CFTR [4]) | Competition with inhibitors of the chaperone and degradation machinery (delF508-CFTR [5]) | Effect of Brefeldine A (BFA) on the compound's action (delF508-CFTR [5]; BFA, inhibitor of ERGIC vesicular traffic) | Effect of MG132 on the compound's action (delF508-CFTR [5]; MG132, proteasome inhibitor) | Cell viability (MTT) (CHO-WT cells) | Activation of wild-type CFTR or other anionic transporter (wild-type CFTR [6]) | EC50 (delF508-CFTR [3]; [7]) |
| --- | --- | --- | --- | --- | --- | --- | --- | --- | --- | --- | --- | --- | --- | --- |
| CC[C@H](CO)Nc1nc(NCc2ccccc2)c2ncn(C(C)C)c2n1 [roscovitine] | localised in the plasma membrane compartment; also recorded: correct delF508-CFTR relocation to the plasma membrane; also recorded: allowed relocation of the delF508-CFTR protein to the membrane | appearance of the mature CFTR band | maturation of delF508-CFTR (band C appears in the Western-Blot) | 56 µM | functional | 2 h | restores addressing of the delF508 protein | not significantly different from the controls | competed with inhibitors of calnexin/delF508-CFTR binding as well as inhibitors of the degradation pathway | inhibition | no modulation is observed | viable at all concentrations | not found to be an activator | – |
| CC[C@@H](CO)Nc1nc(NCc2ccccc2)c2ncn(C(C)C)c2n1 [S-Roscovitine, 2-(S)(1-ethyl-2-hydroxyethylamino)-6-benzylamino-9-isopropylpurine] | – | – | – | – | – | – | – | – | – | – | – | – | – | 32 ± 1.4 µM |
| CC[C@H](CO)Nc1nc(NCc2ccccc2)c2ncn(C(C)C)c2n1 [R-Roscovitine, 2-(R)-(1-ethyl-2-hydroxyethylamino)-6-benzylamino-9-isopropylpurine] | – | – | – | – | – | – | – | – | – | – | – | – | – | 34 ± 1.9 µM |
